In BindingDB's records for doi:10.1021/jm00116a004 (Northeastern University, 1992) one finds Ki data, which are given here for three compounds.

SMILES strings stand for the structures.

Assay [1] concerns the target D(2) dopamine receptor (Sus scrofa). The assay can be described thus: The compound was evaluated for the binding affinity towards dopamine receptor D2 at high affinity state.
Assay [2] deals with D(1A) dopamine receptor (Canis familiaris). Nature of the assay: The compound was evaluated for the dissociation constant for inhibiting the binding of [3H]-SCH- 23390 at dopamine receptor D1.
Assay [3] has as its target D(2) dopamine receptor (Sus scrofa). Nature of the assay: The compound was evaluated for the binding affinity towards Dopamine receptor D2 at low affinity state.
For assay [4] the target is unchanged. The assay can be described thus: The compound was evaluated for the binding affinity towards Dopamine receptor D2 at high affinity state.
For assay [5], the target named is D(1A) dopamine receptor (Canis familiaris). The assay can be described thus: The compound was evaluated for the dissociation constant for inhibiting the binding of [3H]-SCH- 23390 at Dopamine receptor D1.

As usually defined, the Ki is a dissociation constant, usually derived from enzyme kinetics or from competition with a known ligand. Take `CN1CCc2c(cc(O)c(O)c2Cl)C(c2ccccc2)C1` (configuration not stated): the Ki was 77 nM in assay [1] and 0.9 nM in assay [2].

With `CN1CCc2c(cc(O)c(O)c2Br)C(c2ccccc2)C1` (configuration not stated), the inhibitory constant (Ki) stood at 490 nM in assay [1] and 1.2 nM in assay [2].

Regarding `Oc1cc2c(c(Br)c1O)CCNCC2c1ccccc1` (configuration not stated), the values for the inhibitory constant (Ki) in assay [3], in assay [4] and in assay [5] were 2000 nM, 39 nM and 12 nM, respectively.
